A word on the Kd: it is the constant that tells how readily two partners part at equilibrium. A lower Kd goes with tighter binding.

One test concerns the target T1, ctdWDR91 (Homo sapiens, UniProt A4D1P6).
T1 sequence (A4D1P6 392-747): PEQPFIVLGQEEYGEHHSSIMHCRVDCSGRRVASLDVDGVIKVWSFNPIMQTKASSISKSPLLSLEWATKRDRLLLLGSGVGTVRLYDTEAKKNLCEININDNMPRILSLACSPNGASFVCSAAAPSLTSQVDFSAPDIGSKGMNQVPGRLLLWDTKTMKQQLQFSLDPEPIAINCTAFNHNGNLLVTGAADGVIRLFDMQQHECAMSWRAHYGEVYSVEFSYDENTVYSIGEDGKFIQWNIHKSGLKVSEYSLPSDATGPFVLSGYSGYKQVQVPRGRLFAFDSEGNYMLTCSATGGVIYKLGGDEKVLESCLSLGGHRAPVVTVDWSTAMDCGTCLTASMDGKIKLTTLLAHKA
Nature of the test: biochemical.
Turning to `O=C(NCCc1ccc(Cl)cc1)c1ccc(N2CCC(O)C2)cc1` (stereo not shown) [DRGG001935a], the Kd is over 45 µM.
Still for that read-out and setting: under `O=C(NCC1CCN(c2ccc(Cl)cc2)C1)c1ccc(C(=O)NC2CC2)cc1` (stereo not shown) [DRGG001936a] stands over 45 µM; under `CC1CCN(c2ccc(C(=O)NC3(C)Cc4ccccc4C3)cc2)C1` (stereo not shown) [DRGG001937a], over 45 µM.
In the case of `O=C(NCC1CCN(c2ccc(F)cc2)C1)c1ccc(N2CCC(O)C2)cc1` (stereo not shown) [DRGG001938a], the dissociation constant Kd was over 45 µM.
Still for that read-out and setting: under `Nc1ncnc2cc(C(=O)NC3(c4ccc(Cl)cc4)COC3)ccc12` [DRGG001943a] stands 37 µM; under `O=C(NCC1CCN(c2ccc(Cl)cc2)C1)c1ccc(OC2CCOC2)cc1` (stereo not shown) [DRGG001945a], over 45 µM.
The same measure, in the same setting: under `O=C1Cc2c(cccc2C(=O)NC2(c3ccc(Cl)cc3)COC2)N1` [DRGG001947a] stands over 45 µM.
The same measure, in the same setting: under `O=C(NC1(c2ccc(Cl)cc2)COC1)c1cncc2cnccc12` [DRGG001948a] stands over 45 µM; under `O=C(NCC1CCN(c2ccc(Cl)cc2)C1)c1ccc(F)cc1` (stereo not shown) [DRGG001950a], over 45 µM.
Turning to `O=C(CNC(=O)c1ccc(O)cc1)NCC1CCN(c2ccc(Cl)cc2)C1` (stereo not shown) [DRGG001951a], the Kd was over 45 µM.
`O=C(NC1(Cc2ccccc2)COC1)c1ccc(N2CCC(O)C2)cc1` (stereo not shown) [DRGG001952a] gave a Kd of over 45 µM.
Still for that read-out and setting: under `Cc1ccc(N2CCC(NC(=O)c3ccc(Cl)cc3)C2)cc1` (stereo not shown) [DRGG001953a] stands over 45 µM; under `O=C(c1ccc(N2CCC(O)C2)cc1)N1Cc2ccc(Cl)cc2C1` (stereo not shown) [DRGG001955a], over 45 µM.

A further test deals with T1, ctdWDR91. Nature of the test: biochemical. This is another data set of the same source.
`CCN1CCN(c2ccc(C(=O)N(C)c3cccc(C)c3)cc2F)CC1` [MRGG045277a] came in with a Kd of over 45 µM.
Molecule `Cc1nn2cc(C(=O)N(C)CCc3cccc(C#N)c3)nc2s1` [MRGG045278a] gave a Kd of over 45 µM.
Still for that read-out and setting: under `CC(NC(=O)CN(C)C1CCN(C2CC2)C1)c1ccc(Br)cc1` (stereo not shown) [MRGG045280a] stands over 45 µM.
In turn, `O=C(CCN1C[C@@H]2C[C@H]1CN2C1CC1)NCc1ccccc1Cl` [MRGG045281a] returned a Kd of over 45 µM.
For the molecule `Cc1nn(C)cc1C1=NOC(C(=O)N[C@H](C)c2ccc(Br)cc2)C1` (stereo partly shown) [MRGG045282a], the Kd is over 45 µM.
On the same count and under the same terms, under `O=C(CSc1nnc(-c2ccc(Cl)cc2)o1)NCc1ccc(O)c(O)c1` [MRGG045283a] stands over 45 µM; under `N#Cc1cccc(CN(C=O)C2CC3(CCCC3)Oc3ccccc32)c1` (stereo not shown) [MRGG045284a], over 45 µM.
Molecule `CC1(CNC2CCN(C3CC3)C2)CCN(C(=O)OC(C)(C)C)C1` (stereo not shown) [MRGG045285a] returned a Kd of over 45 µM.
For the molecule `CN(C)C(=O)CC1CCN(C(=O)c2cc3cc(O)c(O)cc3s2)CC1` [MRGG045286a], the Kd is over 45 µM.
As to `CNC(=O)c1cc(C)nc(N2CCC3(CC2)CN(C)c2ccccc23)n1` [MRGG045287a], the Kd was over 45 µM.
Same read-out and setting: under `CC(C)(C)OC(=O)NCc1ccc(C(=O)NC2CCN(c3ccc(Cl)cc3)C2)cc1` (stereo not shown) [MRGG045288a] stands over 45 µM.
The molecule `N#Cc1cc(C(F)(F)F)cc(N2CCCN(C3CC3)CC2)n1` [MRGG045289a] yielded a Kd of over 45 µM.
`Cc1[nH]c2ccccc2c1CC(=O)N(C)C1CCN(C2CC2)C1` (stereo not shown) [MRGG045290a] yielded an equilibrium dissociation constant (Kd) of over 45 µM.
Molecule `Cc1ccccc1CN1CC(=O)N(CC2CCN(c3ccc(F)cc3)C2)C1=O` (stereo not shown) [MRGG045291a] yielded a Kd of over 45 µM.
Still for that read-out and setting: under `CC1CN(C2CC2)CC1NC(=O)CCCCc1c[nH]c2ccccc12` (stereo not shown) [MRGG045292a] stands over 45 µM; under `CN(C(=O)c1c(C2CC2)nc2sccn12)C1CCN(C2CC2)C1` (stereo not shown) [MRGG045293a], over 45 µM.
Still for that read-out and setting: under `Cc1cccc(C#CCN2C[C@@H]3C[C@H]2CN3C2CC2)c1` [MRGG045294a] stands over 45 µM; under `CN1CCC(O)(CNC(=O)c2cnc3cc[nH]c3c2)C1` (stereo not shown) [MRGG045295a], over 45 µM; under `O=C(NCc1ccc2cnccc2c1)c1snc(O)c1Cl` [MRGG045296a], over 45 µM.
Take `N#Cc1cccc2c1CCN(C(=O)NCC1CCN(c3ccc(Cl)cc3)C1)C2` (stereo not shown) [MRGG045297a]: the Kd is over 45 µM.
The same measure, in the same setting: under `Cc1cc(N2CCC(COC(=O)C3COc4ccccc43)C2)ccc1F` (stereo not shown) [MRGG045298a] stands over 45 µM.
For `Cc1ccc(C(=O)NC2CC2)cc1NCc1cc(C#N)cc(C#N)c1` [MRGG045299a], the Kd was over 45 µM.
With `N#Cc1ccc2c(c1)CCCCC2NCC1CCN(C2CC2)C1` (stereo not shown) [MRGG045300a], the Kd was over 45 µM.
Still for that read-out and setting: under `CNC(=O)c1cccnc1N1C[C@@H]2CN(C)C[C@]2(C)C1` [MRGG045301a] stands over 45 µM; under `CN(C(=O)Cc1coc2ccccc12)C1CCN(C(=O)OC(C)(C)C)C1` (stereo not shown) [MRGG045302a], over 45 µM.
On the same count and under the same terms, under `CN(Cc1ccccc1OCc1ccccc1F)C1CCN(C2CC2)C1` (stereo not shown) [MRGG045303a] stands over 45 µM.
On the same count and under the same terms, under `C[C@@H]1CN(S(=O)(=O)c2ccc3ncsc3c2)[C@@H](C)CN1C` [MRGG045304a] stands over 45 µM; under `O=C(Cc1ccc(O)c(O)c1)NC(CC1CC1)c1ccc(Cl)cc1` (stereo not shown) [MRGG045306a], over 45 µM; under `C[C@H]1C(=O)N(CCN2CCc3ccccc32)C(=O)N1C` [MRGG045307a], over 45 µM.
As to `CS(=O)(=O)N1CCC(CN(Cc2cccc(F)c2)C2CC2)C1` (stereo not shown) [MRGG045308a], the Kd was over 45 µM.
The molecule `CN(Cc1ccccc1-n1cccc1)C(=O)C1CCCN1C1CC1` (stereo not shown) [MRGG045309a] registered a Kd of over 45 µM.
The same measure, in the same setting: under `OC1CN(C2CC2)CC1N1CCc2ccccc2C1` (stereo not shown) [MRGG045310a] stands over 45 µM; under `c1ccc(-n2ncc3c(NCC4CCN(C5CC5)C4)ncnc32)cc1` (stereo not shown) [MRGG045311a], over 45 µM; under `CN(C1CCN(C2CC2)C1)S(=O)(=O)c1cccc2ccoc12` (stereo not shown) [MRGG045312a], over 45 µM.
Turning to `C[C@H](NC1CCN(C2CC2)C1)c1cccc2cnccc12` (stereo partly shown) [MRGG045313a], the Kd is over 45 µM.
The same measure, in the same setting: under `COC(=O)c1cccc(-c2cccc(NC3CCN(C4CC4)C3)c2)c1` (stereo not shown) [MRGG045314a] stands over 45 µM; under `Cc1ccc(C(=O)N(C)C)cc1-c1cccc(N2CCCC2)c1` [MRGG045315a], over 45 µM; under `CN1C(=O)CC(C(=O)NCc2ccc(O)c(O)c2)C1c1ccc(Cl)c(Cl)c1` (stereo not shown) [MRGG045316a], over 45 µM.
Still for that read-out and setting: under `CC1(C)CN(C(=O)c2snc(O)c2Cl)c2ccc(Cl)cc21` [MRGG045317a] stands over 45 µM.
Same read-out and setting: under `CNC(=O)c1ccc(NC2CC3CCC(C2)N3C)nc1` (stereo not shown) [MRGG045318a] stands over 45 µM.
For the molecule `COc1cccc([C@@H]2[C@@H](NC3CCN(C4CC4)C3)CCN2C2CC2)c1` (stereo partly shown) [MRGG045319a], the Kd was over 45 µM.
The same measure, in the same setting: under `O=C(c1ccccc1)N1CCC(CN(C2CC2)C2CC2)C1` (stereo not shown) [MRGG045320a] stands over 45 µM; under `CCCC(NC(=O)c1cc(O)c(O)cc1C)C(=O)N(C)C` (stereo not shown) [MRGG045321a], over 45 µM.
The molecule `Cc1cc(O)c(O)cc1C(=O)NC1(c2cccc(C#N)c2)CCC1` [MRGG045322a] returned a Kd of over 45 µM.
`CC1CC(NC(=O)c2c[nH]c3cccc(Cl)c23)CN1C1CC1` (stereo not shown) [MRGG045323a] came in with a Kd of over 45 µM.
On the same count and under the same terms, under `COc1ccnc(N(C)C(=O)CCn2cccc2)n1` [MRGG045324a] stands over 45 µM; under `Cc1cc(OCc2ccccc2)nc(N(C)C2CCN(C3CC3)C2)n1` (stereo not shown) [MRGG045325a], over 45 µM.
The molecule `CN1CC(N(C)C(=O)c2cc(-n3cccc3)ccn2)C1` [MRGG045326a] returned a Kd of over 45 µM.
On the same count and under the same terms, under `Cc1ccc(CN2CCC(CN(C)C3CC3)C2)s1` (stereo not shown) [MRGG045327a] stands over 45 µM.
On the same count and under the same terms, under `O=C1NCC2(CC2)C(=O)N1CC1CCN(c2cccc(Br)c2)C1` (stereo not shown) [MRGG045328a] stands over 45 µM; under `COc1ccc(CC(=O)N(C)Cc2cccc(N3CCCC3)c2)cc1[N+](=O)[O-]` [MRGG045329a], over 45 µM.
On the same count and under the same terms, under `Cc1cc(O)c(O)cc1C(=O)N[C@H]1CC(=O)N(C)[C@@H]1c1ccc(Cl)cc1` [MRGG045330a] stands over 45 µM.
`O=c1[nH]nc2n1CCN(Cc1ccccc1CN1CCn3c(n[nH]c3=O)C1)C2` [MRGG045331a] yielded a Kd of over 45 µM.
Molecule `O=C1CC(c2nccs2)NC(=O)N1CC1CCN(c2ccc(Cl)cc2)C1` (stereo not shown) [MRGG045332a] had a Kd of over 45 µM.
Same read-out and setting: under `N#Cc1cc(C#N)cc(CNc2cccc(CN3CCCC3=O)c2)c1` [MRGG045333a] stands over 45 µM; under `CC(C)(C)OC(=O)N1CCCC1C1CCN(C2CC2)C1` (stereo not shown) [MRGG045334a], over 45 µM.
Still for that read-out and setting: under `O=C(NC(CCO)c1ccc(Cl)c(Cl)c1)c1ccc2c(c1)NC(=O)C1CCCN21` (stereo not shown) [MRGG045335a] stands over 45 µM.
On to `CN1CC(N(C)C(=O)CCc2ccc3cc(O)c(O)cc3c2)C1` [MRGG045336a], for which the Kd was over 45 µM.
On the same count and under the same terms, under `c1ccc(CN2CCC3(CCN(C4CC4)C3)C2)cc1` (stereo not shown) [MRGG045337a] stands over 45 µM.
Consider `CC1CN(C2CC2)CC1NC1CCN(C2CC2)CC1` (stereo not shown) [MRGG045338a], for which the Kd is over 45 µM.
Turning to `CC1CC(NCC2CCCCCC2)CN1C1CC1` (stereo not shown) [MRGG045339a], the Kd was over 45 µM.
`Cc1nc2sccn2c1C(=O)N(C)Cc1cccc(F)c1` [UBGG013392b]: the Kd was over 45 µM.
Take `CN(CCc1ccccc1)C(=O)Cc1ccc(O)c(O)c1` [UBGG028860b]: the Kd was over 45 µM.
Regarding `NC(=O)NC(CC(=O)Nc1ccc(N2CCCC2)cc1)c1ccc(Cl)cc1` (stereo not shown) [XSGG048242e], the Kd is over 45 µM.
The same measure, in the same setting: under `CC(NC(=O)CCNC(=O)c1ccc(Br)cc1)c1ccc(Cl)cc1` (stereo not shown) [XSGG051538e] stands over 45 µM; under `O=C(NCc1ccc(N2CCCC2)cc1)c1ccc(F)cc1` [XSGG119722b], over 45 µM.

(Values after doi:10.1101/2023.08.21.552681v1 (biorxiv, 2023).)
